Laboratory results: patent US20130345234A1, “FGFR AND LIGANDS THEREOF AS BIOMARKERS FOR BREAST CANCER IN HR POSITIVE SUBJECTS” (priority 2011, published 2013)

Tests used:
[1] = Phase 2 trial of dovitinib: adverse events; format: in vivo, human; settings: as of January 2011
Description: Patient selection was performed according to FISH/CISH for FGFR1 (cut-off≧6 gene copies). […] The primary endpoint was RECIST best overall response rate in pts with measurable disease per external radiology review.
Inclusion Criteria: • 1. Patients have histological confirmation of breast carcinoma with a clinical diagnosis of IBC based on presence of inflammatory changes in the involved breast, including diffuse erythema and edema (peau d orange), with or without an underlying palpable mass involving the majority of the skin of the breast. Pathological evidence of dermal lymphatic invasion should be noted but is not required for diagnosis. • 2. Patients have stage IV disease with local or distant relapse • 3. Patients have negative HER2 expression by IHC (defined as 0 or 1+), or FISH (fluorescence in situ hybridization). If HER2 is 2+, negative HER2 expression must be confirmed by FISH. • 4. Patients are able to swallow and retain oral medication. • 5. Patients have ECOG performance status 0-2. • 6. Patients have received up to 3 standard chemotherapies for metastatic disease and have relapsed. • 7. Patients have ability and willingness to sign written informed consent. • 8. Patients are 18 years of age or older. • 9. Female patients of childbearing potential (A person not free from menses>2 years or not surgically sterilized) must be willing to use two adequate barrier methods of contraception to prevent pregnancy or agree to abstain from heterosexual activity throughout the study. • 10. Female patients of childbearing potential must have negative serum pregnancy test. • 11. If Patients have been treated with anti-VEGF agents, such as Bevacizumab, last dose must be >4 weeks. • 12. Patients have biopsy tissue of the metastatic disease (including chest wall or regional nodes) available (paraffin blocks or up to 20 unstained slides), if no biopsy tissue available, a biopsy (or thoracentesis if patient has pleural effusion only) of the metastatic disease will be performed to confirm the diagnoses.
Exclusion Criteria: • 1. Patients are receiving concurrent anti-cancer therapy (chemotherapy, immunotherapy, radiation therapy and biological therapy) while taking study medication. • 2. Abnormal liver functions consisting of any of the following: a) Serum bilirubin>/=1.5×ULN, b) AST and ALT>/=2.5×ULN, (for patients with known liver metastasis, AST and ALT</=5×ULN is allowed), ANC<1.5. • 3. Patients have an active infection and require IV or oral antibiotics. • 4. Impaired cardiac function or clinically significant cardiac diseases, including any of the following: a) History or presence of serious uncontrolled ventricular arrhythmias or presence of atrial fibrillation; b) Clinically significant resting bradycardia (<50 beats per minute); c) LVEF<45% assessed by 2-D echocardiogram (ECHO) or Multiple gated acquisition scanning (MUGA); d) Any of the following within 6 months prior to study entry: myocardial infarction (MI), severe/unstable angina, Coronary Artery Bypass Graft (CABG), Congestive Heart Failure (CHF), Cerebrovascular Accident (CVA), Transient Ischemic Attack (TIA), Pulmonary Embolism (PE); e) Uncontrolled hypertension defined by an SBP>150 and/or a DBP>100 mm Hg with or without anti-hypertensive medication. • 5. History of gastrointestinal disorders (medical disorders or extensive surgery) which may interfere with the absorption of the study drug. • 6. Patients have a concurrent disease or condition that would make them inappropriate for study participation, or any serious medical disorder that would interfere with patients' safety. • 7. Patients with only locally or regionally confined disease without evidence of metastatic disease.

tumor xenograft models = assay: Antitumor activity in tumor xenograft models in athymic mice; format: in vivo; settings: administered orally, all models tested
Description: (§1) Inhibition was observed up to 24 hours in certain models.

breast cancer cells = assay: Model of disseminated disease: liver colonization from a subcutaneous xenograft primary; format: in vivo; settings: mice; subcutaneous (SC) xenograft primary; oral treatment
Description: as §1

[2] = system: FGFR downstream-signaling proteins AKT and ERK; assay: Tyrosine phosphorylation of FGFR downstream-signaling proteins in xenograft tumors; format: in vivo, mice; settings: following a single oral dose
Description: as §1

## CN1CCN(c2ccc3nc(-c4c(N)c5c(F)cccc5[nH]c4=O)[nH]c3c2)CC1 [dovitinib, 4-amino-5-fluoro-3-[6-(4-methylpiperazin-1-yl)-1H-benzimidazol-2-yl]-1H-quinolin-2-one]
[1]; Group 3
  adverse event: asthenia, Group 3: 17%
  adverse event: diarrhea, Group 3: 6%
  adverse event: nausea, Group 3: 5%
[1]; all grades, 77 patients with data, 500 mg once daily, 5-day on/2-day off
  adverse event: vomiting: 75%
[1]; all grades
  adverse event: asthenia: 61%
  adverse event: diarrhea: 72%
  adverse event: nausea: 62%
[1]; grade 3
  adverse event: vomiting, grade 3 [Group 3]: 6%
Tumor xenograft models
  antitumor activity in tumor xenograft models: anti-tumor responses, ranging from growth inhibition and stasis to regression
Breast cancer cells
  colonization of breast cancer cells in the livers: significantly reduced
[2]; certain models
  duration of inhibition of AKT and ERK phosphorylation: up to 24 hours
[2]; xenograft tumors
  tyrosine phosphorylation of AKT and ERK: inhibited
